How the values were obtained:
Brain [1] = test: Neuroprotective activity against 6-OHDA-induced oxidative stress in rat brain synaptosomes assessed as GSH level at 40 uM relative to control; format: functional, subcellular; settings: Synaptosome
[2] = Toxicity in rat brain synaptosomes assessed as reduction in cell viability at 40 uM measured after 1 hr by MTT assay relative to control; format: subcellular, Synaptosome
[3] = Toxicity in rat brain synaptosomes assessed as effect on reduced glutathione level at 40 uM measured after 1 hr relative to control; format: subcellular, Synaptosome; settings: in vitro
Brain [4] = test: Neuroprotective activity against 6-OHDA-induced oxidative stress in rat brain synaptosomes assessed as cell viability at 40 uM by MTT assay relative to control; format: functional, subcellular; settings: Synaptosome
[5] = target: T1, Amine oxidase [flavin-containing] A (Homo sapiens, UniProt P21397); test: Inhibition of MAOA (unknown origin)
T1 sequence (P21397 whole entry): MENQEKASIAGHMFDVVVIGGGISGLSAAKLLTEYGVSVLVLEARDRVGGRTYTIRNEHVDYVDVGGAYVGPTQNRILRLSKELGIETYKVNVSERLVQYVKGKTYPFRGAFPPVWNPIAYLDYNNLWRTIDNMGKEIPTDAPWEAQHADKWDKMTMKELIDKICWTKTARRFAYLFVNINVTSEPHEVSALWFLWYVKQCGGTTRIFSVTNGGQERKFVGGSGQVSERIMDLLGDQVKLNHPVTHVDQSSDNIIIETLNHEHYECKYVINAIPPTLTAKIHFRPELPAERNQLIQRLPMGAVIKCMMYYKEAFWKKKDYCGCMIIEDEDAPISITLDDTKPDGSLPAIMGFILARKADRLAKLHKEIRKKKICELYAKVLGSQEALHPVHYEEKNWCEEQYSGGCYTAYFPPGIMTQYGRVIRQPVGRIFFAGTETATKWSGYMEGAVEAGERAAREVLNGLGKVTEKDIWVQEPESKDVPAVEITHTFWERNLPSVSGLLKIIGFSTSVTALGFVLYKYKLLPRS

| inhibition (INH) [5] | SMILES | Activity (Brain [1]) [%] | Activity [2] | Activity [3] | Activity (Brain [4]) [%] |
| --- | --- | --- | --- | --- | --- |
| – | COc1ccc2[nH]cc(/C=N\NC(=O)c3snnc3C)c2c1 | 60 | 15% | 25% | 67 |
| – | COc1ccc2[nH]cc(/C=N\NC(=O)c3ccc(Cl)cc3)c2c1 | 60 | 20% | 25% | 67 |
| – | COc1ccc(C(=O)N/N=C/c2ccc(Cl)cc2Cl)cc1OC | 70 | 20% | 25% | 56 |
| Active | c1ccc(-c2nnc(-c3c[nH]c4ccccc34)o2)cc1 | 70 | Non-Toxic | Non-Toxic | 56 |
| – | COc1ccc2[nH]cc(/C=N\NC(=O)Cc3c[nH]c4ccccc34)c2c1 | 60 | 20% | 25% | 56 |
| – | COc1ccc2[nH]cc(/C=N\NC(=O)c3ccoc3)c2c1 | 70 | 20% | 25% | 67 |
| – | COc1ccc2[nH]cc(/C=N\NC(=O)c3c[nH]c4ccccc34)c2c1 | 70 | 20% | 25% | 56 |
| Active | Clc1ccc(-c2nnc(-c3ccccc3)o2)cc1 | 60 | Non-Toxic | Non-Toxic | 66 |
| – | COc1ccc(C(=O)N/N=C/c2ccc(Cl)cc2Cl)cc1O | 70 | 20% | 25% | 56 |

From ChEMBL document CHEMBL5131422, “Neuroprotective evaluation of novel substituted 1,3,4-oxadiazole and aroylhydrazone derivatives” (Bioorg Med Chem Lett, 2022)
